Assay results published in PubChem BioAssay (NCI).
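Cells were grown in 96-well plates and exposed to each compound for 48 hours at five concentrations; endpoints were interpolated linearly between bracketing concentrations, or set to the highest concentration if not reached. GI50 = concentration required for 50% inhibition of growth. TGI denotes the concentration required for complete inhibition of growth.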

How the values were obtained:
Test in all cases: growth of human tumour cells (NCI), 48 h
786-0 renal = system: 786-0 renal
A498 renal = system: A498 renal
A549 NSCLC = system: A549 NSCLC
ACHN renal = system: ACHN renal
BT-549 breast = system: BT-549 breast
CAKI-1 renal = system: CAKI-1 renal
CCRF-CEM leukemia = system: CCRF-CEM leukemia
COLO 205 colon = system: COLO 205 colon
DU-145 prostate = system: DU-145 prostate
EKVX NSCLC = system: EKVX NSCLC
HCC-2998 colon = system: HCC-2998 colon
HCT-116 colon = system: HCT-116 colon
HCT-15 colon = system: HCT-15 colon
HL-60(TB) leukemia = system: HL-60(TB) leukemia
HOP-62 NSCLC = system: HOP-62 NSCLC
HOP-92 NSCLC = system: HOP-92 NSCLC
HS 578T breast = system: HS 578T breast
HT29 colon = system: HT29 colon
IGROV1 ovarian = system: IGROV1 ovarian
K-562 leukemia = system: K-562 leukemia
KM12 colon = system: KM12 colon
LOX IMVI melanoma = system: LOX IMVI melanoma
M14 melanoma = system: M14 melanoma
MALME-3M melanoma = system: MALME-3M melanoma
MCF7 breast = system: MCF7 breast
MDA-MB-231 breast = system: MDA-MB-231 breast
MDA-MB-435 = system: MDA-MB-435
MDA-MB-468 breast = system: MDA-MB-468 breast
MOLT-4 leukemia = system: MOLT-4 leukemia
NCI-H226 lung = system: NCI-H226 lung
NCI-H23 lung = system: NCI-H23 lung
NCI-H460 lung = system: NCI-H460 lung
NCI-H522 lung = system: NCI-H522 lung
NCI/ADR-RES ovarian = system: NCI/ADR-RES ovarian
OVCAR-3 ovarian = system: OVCAR-3 ovarian
OVCAR-4 ovarian = system: OVCAR-4 ovarian
OVCAR-5 ovarian = system: OVCAR-5 ovarian
OVCAR-8 ovarian = system: OVCAR-8 ovarian
PC-3 prostate = system: PC-3 prostate
RPMI-8226 leukemia = system: RPMI-8226 leukemia
RXF 393 renal = system: RXF 393 renal
SF-268 CNS = system: SF-268 CNS
SF-295 CNS = system: SF-295 CNS
SF-539 CNS = system: SF-539 CNS
SK-MEL-2 melanoma = system: SK-MEL-2 melanoma
SK-MEL-28 melanoma = system: SK-MEL-28 melanoma
SK-MEL-5 melanoma = system: SK-MEL-5 melanoma
SK-OV-3 ovarian = system: SK-OV-3 ovarian
SN12C renal = system: SN12C renal
SNB-19 CNS = system: SNB-19 CNS
SNB-75 CNS = system: SNB-75 CNS
SR leukemia = system: SR leukemia
SW-620 colon = system: SW-620 colon
T-47D breast = system: T-47D breast
TK-10 renal = system: TK-10 renal
U251 CNS = system: U251 CNS
UACC-257 melanoma = system: UACC-257 melanoma
UACC-62 melanoma = system: UACC-62 melanoma
UO-31 renal = system: UO-31 renal

Work on `NS(=O)(=O)c1ccc(NC(=O)CSc2ccc(-c3ccc(Cl)cc3)nn2)c(Br)c1` yielded a GI50 (786-0 renal) of 11.3 µM, a TGI (786-0 renal) of 25.6 µM and a GI50 (A498 renal) of 14 µM. For the same molecule, the TGI (A498 renal) was 28 µM, the GI50 (A549 NSCLC) was 11.7 µM and the TGI (A549 NSCLC) was 31.8 µM. It also gave a GI50 (ACHN renal) of 6.92 µM, a TGI (ACHN renal) of 19.6 µM and a GI50 (BT-549 breast) of 14.1 µM. It also gave a TGI (BT-549 breast) of 44.3 µM, a GI50 (CAKI-1 renal) of 11 µM and a TGI (CAKI-1 renal) of 24.4 µM. It also gave a GI50 (CCRF-CEM leukemia) of over 100 µM, a TGI (CCRF-CEM leukemia) of over 100 µM and a GI50 (COLO 205 colon) of 20.7 µM. For the same molecule, the TGI (COLO 205 colon) was 65.5 µM, the GI50 (DU-145 prostate) was 12.1 µM and the TGI (DU-145 prostate) was 27.2 µM. For the same molecule, the GI50 (EKVX NSCLC) was 11 µM, the TGI (EKVX NSCLC) was 25.8 µM and the GI50 (HCC-2998 colon) was 11 µM. The TGI (HCC-2998 colon) was 40.4 µM, the GI50 (HCT-116 colon) was 10.3 µM and the TGI (HCT-116 colon) was 29.6 µM. It also gave a GI50 (HCT-15 colon) of 11.8 µM, a TGI (HCT-15 colon) of 25.8 µM and a GI50 (HL-60(TB) leukemia) of 50.9 µM. It also gave a TGI (HL-60(TB) leukemia) of over 100 µM, a GI50 (HOP-62 NSCLC) of 2930 nM and a TGI (HOP-62 NSCLC) of 10.8 µM. The GI50 (HOP-92 NSCLC) was 3.96 µM, the TGI (HOP-92 NSCLC) was 19.2 µM and the GI50 (HS 578T breast) was 2800 nM. The TGI (HS 578T breast) was 12.4 µM, the GI50 (HT29 colon) was 15.9 µM and the TGI (HT29 colon) was 46.8 µM. The GI50 (IGROV1 ovarian) was 23.3 µM, the TGI (IGROV1 ovarian) was 76.4 µM and the GI50 (K-562 leukemia) was 20.4 µM. For the same molecule, the TGI (K-562 leukemia) was over 100 µM, the GI50 (KM12 colon) was 36.3 µM and the TGI (KM12 colon) was over 100 µM. It also gave a GI50 (LOX IMVI melanoma) of 10.4 µM, a TGI (LOX IMVI melanoma) of 24.2 µM and a GI50 (M14 melanoma) of 32.4 µM. For the same molecule, the TGI (M14 melanoma) was over 100 µM, the GI50 (MALME-3M melanoma) was 9.36 µM and the TGI (MALME-3M melanoma) was 22.4 µM. For the same molecule, the GI50 (MCF7 breast) was 10.1 µM, the TGI (MCF7 breast) was 25.3 µM and the GI50 (MDA-MB-231 breast) was 3.7 µM. The TGI (MDA-MB-231 breast) was 14.6 µM, the GI50 (MDA-MB-435) was 32.6 µM and the TGI (MDA-MB-435) was over 100 µM. The GI50 (MDA-MB-468 breast) was 8.32 µM, the TGI (MDA-MB-468 breast) was 25 µM and the GI50 (MOLT-4 leukemia) was 48.3 µM. The TGI (MOLT-4 leukemia) was over 100 µM, the GI50 (NCI-H226 lung) was 2620 nM and the TGI (NCI-H226 lung) was 9.4 µM. The GI50 (NCI-H23 lung) was 11.1 µM, the TGI (NCI-H23 lung) was 23.2 µM and the GI50 (NCI-H460 lung) was 7.22 µM. It also gave a TGI (NCI-H460 lung) of 22.3 µM, a GI50 (NCI-H522 lung) of 10.5 µM and a TGI (NCI-H522 lung) of 26.3 µM. For the same molecule, the GI50 (NCI/ADR-RES ovarian) was 7.75 µM, the TGI (NCI/ADR-RES ovarian) was over 100 µM and the GI50 (OVCAR-3 ovarian) was 12.9 µM. The TGI (OVCAR-3 ovarian) was 27.6 µM, the GI50 (OVCAR-4 ovarian) was 10.4 µM and the TGI (OVCAR-4 ovarian) was 42.6 µM. The GI50 (OVCAR-5 ovarian) was 17.2 µM, the TGI (OVCAR-5 ovarian) was 51 µM and the GI50 (OVCAR-8 ovarian) was 10.3 µM. It also gave a TGI (OVCAR-8 ovarian) of 24.7 µM, a GI50 (PC-3 prostate) of 8.97 µM and a TGI (PC-3 prostate) of 49.2 µM. For the same molecule, the GI50 (RPMI-8226 leukemia) was 96.9 µM, the TGI (RPMI-8226 leukemia) was over 100 µM and the GI50 (RXF 393 renal) was 2990 nM. For the same molecule, the TGI (RXF 393 renal) was 13.8 µM, the GI50 (SF-268 CNS) was 7.22 µM and the TGI (SF-268 CNS) was 34.4 µM. It also gave a GI50 (SF-295 CNS) of 5.13 µM, a TGI (SF-295 CNS) of 16.1 µM and a GI50 (SF-539 CNS) of 4.15 µM. It also gave a TGI (SF-539 CNS) of 15.8 µM, a GI50 (SK-MEL-2 melanoma) of 15.8 µM and a TGI (SK-MEL-2 melanoma) of 32 µM. The GI50 (SK-MEL-28 melanoma) was 12.3 µM, the TGI (SK-MEL-28 melanoma) was 28.8 µM and the GI50 (SK-MEL-5 melanoma) was 10.2 µM. For the same molecule, the TGI (SK-MEL-5 melanoma) was 21.9 µM, the GI50 (SK-OV-3 ovarian) was 4.39 µM and the TGI (SK-OV-3 ovarian) was 15.1 µM. For the same molecule, the GI50 (SN12C renal) was 26.1 µM, the TGI (SN12C renal) was 83.3 µM and the GI50 (SNB-19 CNS) was 3.75 µM. For the same molecule, the TGI (SNB-19 CNS) was 14.9 µM, the GI50 (SNB-75 CNS) was 1790 nM and the TGI (SNB-75 CNS) was 15 µM. The GI50 (SR leukemia) was 50.5 µM, the TGI (SR leukemia) was over 100 µM and the GI50 (SW-620 colon) was 32.8 µM. It also gave a TGI (SW-620 colon) of over 100 µM, a GI50 (T-47D breast) of 4.59 µM and a TGI (T-47D breast) of 21.8 µM. For the same molecule, the GI50 (TK-10 renal) was 18 µM, the TGI (TK-10 renal) was 38.9 µM and the GI50 (U251 CNS) was 5.15 µM. For the same molecule, the TGI (U251 CNS) was 21.7 µM, the GI50 (UACC-257 melanoma) was 31.4 µM and the TGI (UACC-257 melanoma) was over 100 µM. The GI50 (UACC-62 melanoma) was 13.7 µM, the TGI (UACC-62 melanoma) was 34.1 µM and the GI50 (UO-31 renal) was 29.5 µM. For the same molecule, the TGI (UO-31 renal) was over 100 µM.
